Laboratory results as given in ChEMBL document CHEMBL1201862, “PubChem BioAssay data set” (2004).
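Five compound concentrations were applied to cells in 96-well plates for 48 hours; endpoints were derived by simple linear interpolation of the resulting dose-response curve. Abbreviation: GI50, concentration required for 50% inhibition of growth.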 Calls of active or inactive are those of the source. No stated cut-off is given here; in the data, active = GI50 up to about 1.1 µM and inactive = higher.

Tests used:
Assay in all cases: NCI-60 cell line screen, 48 h
[1] = tested on: A498
[2] = tested on: HCT-116
[3] = tested on: HOP-62
[4] = tested on: HOP-92
[5] = tested on: LOX IMVI
[6] = tested on: M14
[7] = tested on: MCF7
[8] = tested on: MDA-MB-435
[9] = tested on: Malme-3M
[10] = tested on: NCI-H23
[11] = tested on: NCI-H460
[12] = tested on: PC-3
[13] = tested on: SK-MEL-28
[14] = tested on: SK-OV-3
[15] = tested on: SW-620
[16] = tested on: TK-10
[17] = tested on: U-251
[18] = tested on: MOLT-4
[19] = tested on: OVCAR-3

Measured: GI50

Cc1cn([C@@H]2C[C@](C)(CO)N(C)O2)c(=O)[nH]c1=O
inactive: [1] > 100 µM | [2] > 100 µM | [3] > 100 µM | [4] > 100 µM | [5] > 100 µM | [6] > 100 µM | [7] > 100 µM | [8] > 100 µM | [9] > 100 µM | [10] > 100 µM | [11] > 100 µM | [12] > 100 µM | [13] > 100 µM | [14] > 100 µM | [15] > 100 µM | [16] > 100 µM | [17] > 100 µM

COc1cc(/C=C2\CCC(C)/C(=C\c3cc(OC)c(OC)c(OC)c3)C2=O)cc(OC)c1OC (centres undefined)
inactive: [1] 1.76 µM | [2] 3.32 µM | [3] 3.63 µM | [4] > 100 µM | [5] 3.27 µM | [6] 1.96 µM | [7] 2.89 µM | [8] 3.03 µM | [12] 2.7 µM | [13] 4.35 µM | [14] 10.5 µM | [15] 3.8 µM | [16] 2.63 µM | [17] 4.97 µM

CNC(=S)Nc1sc2c(c1C#N)CCCC2
inactive: [1] > 75 µM | [2] > 75 µM | [3] > 75 µM | [5] > 75 µM | [7] > 75 µM | [8] > 75 µM | [18] > 75 µM | [9] > 75 µM | [10] > 75 µM | [11] > 75 µM | [19] > 75 µM | [12] > 75 µM | [13] > 75 µM | [15] > 75 µM | [16] > 75 µM | [17] > 75 µM

C1CSCCSCSCCS1
inactive: [1] > 100 µM | [2] > 100 µM | [3] > 100 µM | [4] > 100 µM | [5] > 100 µM | [6] > 100 µM | [7] > 100 µM | [8] > 100 µM | [10] > 100 µM | [11] > 100 µM | [19] > 100 µM | [12] > 100 µM | [13] > 100 µM | [14] > 100 µM | [15] > 100 µM | [16] > 100 µM | [17] > 100 µM

COc1cc(C2c3c(ccc4ccccc34)C(=O)C3CCC(=O)N32)cc(OC)c1OC (centres undefined)
inactive: [1] > 50 µM | [2] > 50 µM | [3] > 50 µM | [4] > 50 µM | [6] > 50 µM | [7] > 50 µM | [8] > 50 µM | [18] > 50 µM | [10] > 50 µM | [11] > 50 µM | [19] > 50 µM | [12] > 50 µM | [13] > 50 µM | [14] > 50 µM | [15] > 50 µM | [17] > 50 µM

Cn1c(=O)c(-c2ccccc2)c(N=[N+]=[N-])c2ccccc21
inactive: [1] 42.6 µM | [2] 69.5 µM | [3] 45 µM | [4] 17.9 µM | [6] 63.2 µM | [7] 54.3 µM | [8] 45.4 µM | [18] 20.9 µM | [9] 30.9 µM | [10] 38.7 µM | [11] 39.4 µM | [19] 44.2 µM | [12] 22.3 µM | [13] 66.4 µM | [14] > 100 µM | [15] 48.3 µM | [16] > 100 µM | [17] 34.8 µM

C[C@@H]1CC[C@H]2[C@H]1[C@H]1[C@@H](CC[C@]2(C)N=C=S)C1(C)C
inactive: [2] 17.9 µM | [3] 31.8 µM | [4] 30.7 µM | [5] 59.4 µM | [6] 18.5 µM | [7] 17.5 µM | [8] 24.8 µM | [18] 13.8 µM | [9] 22.5 µM | [10] 29.5 µM | [11] 20.4 µM | [19] 19.3 µM | [12] 26.7 µM | [13] 21.1 µM | [14] 49.3 µM | [15] 15.1 µM | [16] 41.3 µM | [17] 16.7 µM

CC(O)C(CO)NC(=O)C1CSSCC(NC(=O)C(N)Cc2ccccc2)C(=O)NC(Cc2ccccc2)C(=O)NC(Cc2c[nH]c3ccccc23)C(=O)NC(CCCCN)C(=O)NC(C(C)O)C(=O)N1 (centres undefined)
inactive: [1] > 100 µM | [2] > 100 µM | [3] > 100 µM | [4] > 100 µM | [5] > 100 µM | [6] > 100 µM | [7] > 100 µM | [8] > 100 µM | [18] > 100 µM | [9] > 100 µM | [10] > 100 µM | [11] > 100 µM | [19] > 100 µM | [12] > 100 µM | [13] > 100 µM | [15] > 100 µM | [16] > 100 µM | [17] > 100 µM
